{"source": "patent US20080206819A1", "about": "“Intensified Perfusion Production Method” (priority 2006, published 2008)", "key": {"[1]": {"system": "CHO (Chinese Hamster Ovary) cell-derived cell line", "test": "Cell viability with gradual NaB ramping in perfusion culture (summary experiment)", "type": "cell-based", "description": "In one experiment, 0.5 mM NaB (final concentration) was introduced into the bioreactor by perfusing RBM12.1 medium with 0.5 mM NaB into the bioreactor on day 7 of the production run. On day 10, the bioreactor was perfused with RBM 12.1 medium with 1.0 mM NaB. On day 13, the bioreactor was perfused with RBM12.1 medium with 1.5 mM NaB."}, "recombinant CHO cells": {"system": "recombinant CHO cells", "settings": "perfusion culture; end of the production run, in most cases; cited from earlier work"}, "[2]": {"system": "Chinese hamster ovary (CHO) cell line", "test": "Effect of increasing sodium butyrate concentrations on cell viability in perfusion culture", "type": "cell-based", "description": "Additional experiments using higher concentrations of sodium butyrate induction were also performed. The cells were seeded and grown similar to the conditions described above. On day 7, […] sodium butyrate was introduced into the perfusion medium. On day 10, the sodium butyrate concentration was increased to 1.0 mM. On day 12, the sodium butyrate concentration was increased to 2.0 mM. On day 14, the sodium butyrate concentration was increased to 4.0 mM and on day 17, the sodium butyrate concentration was increased to 8.0 mM. Throughout the experiment, cell viability was over 85% and the viable cell concentration reached over 4.8×10^7 cells/ml."}, "[3]": {"system": "Chinese hamster ovary (CHO) cell line", "test": "Effect of mode of sodium butyrate addition (bolus vs. gradual ramping) on cell viability", "type": "cell-based", "description": "In order to investigate if the method used to deliver sodium butyrate into the cell culture bioreactor would effect cell viability, two modes of delivery were tested: bolus introduction of the desired sodium butyrate concentration and the gradual “ramping” to the desired sodium butyrate concentration. The growth period conditions were identical to those described above.\nOn Day 9, sodium butyrate was introduced into the bioreactors. In the bolus condition, 2 mM sodium butyrate (final concentration) was added to the medium and perfused into the bioreactor. […] The maximal concentration of sodium butyrate was maintained for the rest of the production run. Cell viability was determined by pulling samples from each bioreactor and trypan blue staining for live/dead cells. After the bolus addition of 2 mM sodium butyrate, the cell viability started to decline (after day 9). The bioreactor for the bolus condition was stopped on day 19 after the viability dropped below 50%. In contrast, the gradual ramping of sodium butyrate from day 9 to day 14 maintained high cell viability (over 85%)."}}}
{"smiles": "CCCC(=O)[O-].[Na+]", "note": "[sodium butyrate]", "values": [{"measurement": "cell viability", "setting": "[1]; 0.5 mM NaB day 7, 1.0 mM day 10, 1.5 mM day 13", "value": "did not decrease"}, {"measurement": "cell viability", "setting": "[1]; gradual ramping of sodium butyrate to desired maximal concentration, compared to bolus addition", "value": "over 85%"}, {"measurement": "cell viability", "setting": "recombinant CHO cells", "value": "less than 45%"}, {"measurement": "% viable cells", "setting": "[2]; Na butyrate 0.5 mM, day 7", "value": 97.3, "unit": "%"}, {"measurement": "% viable cells", "setting": "[2]; Na butyrate 0.5 mM, day 8", "value": 97.8, "unit": "%"}, {"measurement": "% viable cells", "setting": "[2]; Na butyrate 0.5 mM, day 9", "value": 97.8, "unit": "%"}, {"measurement": "% viable cells", "setting": "[2]; Na butyrate 1.0 mM, day 10", "value": 97.8, "unit": "%"}, {"measurement": "% viable cells", "setting": "[2]; Na butyrate 1.0 mM, day 11", "value": 96.6, "unit": "%"}, {"measurement": "% viable cells", "setting": "[2]; Na butyrate 2.0 mM, day 12", "value": 97.2, "unit": "%"}, {"measurement": "% viable cells", "setting": "[2]; Na butyrate 2.0 mM, day 13", "value": 95.9, "unit": "%"}, {"measurement": "% viable cells", "setting": "[2]; Na butyrate 4.0 mM, day 14", "value": 97, "unit": "%"}, {"measurement": "% viable cells", "setting": "[2]; Na butyrate 4.0 mM, day 15", "value": 96.7, "unit": "%"}, {"measurement": "% viable cells", "setting": "[2]; Na butyrate 4.0 mM, day 16", "value": 94.2, "unit": "%"}, {"measurement": "% viable cells", "setting": "[2]; Na butyrate 8.0 mM, day 17", "value": 94.7, "unit": "%"}, {"measurement": "% viable cells", "setting": "[2]; Na butyrate 8.0 mM, day 18", "value": 93.3, "unit": "%"}, {"measurement": "% viable cells", "setting": "[2]; Na butyrate 8.0 mM, day 19", "value": 91.5, "unit": "%"}, {"measurement": "% viable cells", "setting": "[2]; Na butyrate 8.0 mM, day 20", "value": 88.1, "unit": "%"}, {"measurement": "cell viability", "setting": "[2]; sodium butyrate stepped 0.5 to 8.0 mM, day 7 to day 17, throughout the experiment", "value": "over 85%"}, {"measurement": "viable cell concentration", "setting": "[2]; sodium butyrate stepped 0.5 to 8.0 mM, reached", "value": "over 4.8×10^7 cells/ml"}, {"measurement": "% viable cells (bolus)", "setting": "[3]; bolus 2 mM from Day 9, day 10 in culture", "value": 76, "unit": "%"}, {"measurement": "% viable cells (bolus)", "setting": "[3]; bolus 2 mM from Day 9, day 11 in culture", "value": 73, "unit": "%"}, {"measurement": "% viable cells (bolus)", "setting": "[3]; bolus 2 mM from Day 9, day 12 in culture", "value": 76, "unit": "%"}, {"measurement": "% viable cells (bolus)", "setting": "[3]; bolus 2 mM from Day 9, day 13 in culture", "value": 72, "unit": "%"}, {"measurement": "% viable cells (bolus)", "setting": "[3]; bolus 2 mM from Day 9, day 14 in culture", "value": 72, "unit": "%"}, {"measurement": "% viable cells (bolus)", "setting": "[3]; bolus 2 mM from Day 9, day 15 in culture", "value": 84, "unit": "%"}, {"measurement": "% viable cells (bolus)", "setting": "[3]; bolus 2 mM from Day 9, day 16 in culture", "value": 79, "unit": "%"}, {"measurement": "% viable cells (bolus)", "setting": "[3]; bolus 2 mM from Day 9, day 17 in culture", "value": 76, "unit": "%"}, {"measurement": "% viable cells (bolus)", "setting": "[3]; bolus 2 mM from Day 9, day 18 in culture", "value": 80, "unit": "%"}, {"measurement": "% viable cells (bolus)", "setting": "[3]; bolus 2 mM from Day 9, day 19 in culture", "value": 44, "unit": "%"}, {"measurement": "% viable cells (bolus)", "setting": "[3]; bolus 2 mM sodium butyrate introduced Day 9, day 9 in culture", "value": 89, "unit": "%"}, {"measurement": "cell viability", "setting": "[3]; bolus 2 mM sodium butyrate, day 19, bioreactor stopped", "value": "below 50%"}, {"measurement": "% viable cells (RaMP)", "setting": "[3]; gradual ramping from 0.5 mM Day 9 to maximal by Day 14, day 10 in culture", "value": 97, "unit": "%"}, {"measurement": "% viable cells (RaMP)", "setting": "[3]; gradual ramping from 0.5 mM Day 9 to maximal by Day 14, day 11 in culture", "value": 97.6, "unit": "%"}, {"measurement": "% viable cells (RaMP)", "setting": "[3]; gradual ramping from 0.5 mM Day 9 to maximal by Day 14, day 12 in culture", "value": 96.4, "unit": "%"}, {"measurement": "% viable cells (RaMP)", "setting": "[3]; gradual ramping from 0.5 mM Day 9 to maximal by Day 14, day 13 in culture", "value": 97.1, "unit": "%"}, {"measurement": "% viable cells (RaMP)", "setting": "[3]; gradual ramping from 0.5 mM Day 9 to maximal by Day 14, day 14 in culture", "value": 95.7, "unit": "%"}, {"measurement": "cell viability", "setting": "[3]; gradual ramping of sodium butyrate from day 9 to day 14", "value": "over 85%"}, {"measurement": "% viable cells (RaMP)", "setting": "[3]; maximal concentration maintained after ramping, day 15 in culture", "value": 96.7, "unit": "%"}, {"measurement": "% viable cells (RaMP)", "setting": "[3]; maximal concentration maintained after ramping, day 16 in culture", "value": 97.2, "unit": "%"}, {"measurement": "% viable cells (RaMP)", "setting": "[3]; maximal concentration maintained after ramping, day 17 in culture", "value": 96.4, "unit": "%"}, {"measurement": "% viable cells (RaMP)", "setting": "[3]; maximal concentration maintained after ramping, day 18 in culture", "value": 97, "unit": "%"}, {"measurement": "% viable cells (RaMP)", "setting": "[3]; maximal concentration maintained after ramping, day 19 in culture", "value": 96.9, "unit": "%"}, {"measurement": "% viable cells (RaMP)", "setting": "[3]; maximal concentration maintained after ramping, day 20 in culture", "value": 95.8, "unit": "%"}, {"measurement": "% viable cells (RaMP)", "setting": "[3]; maximal concentration maintained after ramping, day 21 in culture", "value": 95.4, "unit": "%"}, {"measurement": "% viable cells (RaMP)", "setting": "[3]; maximal concentration maintained after ramping, day 22 in culture", "value": 98.7, "unit": "%"}, {"measurement": "% viable cells (RaMP)", "setting": "[3]; maximal concentration maintained after ramping, day 23 in culture", "value": 90.6, "unit": "%"}, {"measurement": "% viable cells (RaMP)", "setting": "[3]; maximal concentration maintained after ramping, day 24 in culture", "value": 89.7, "unit": "%"}, {"measurement": "% viable cells (RaMP)", "setting": "[3]; maximal concentration maintained after ramping, day 25 in culture", "value": 88.8, "unit": "%"}, {"measurement": "% viable cells (RaMP)", "setting": "[3]; sodium butyrate from 0.5 mM on Day 9, gradually increased to maximal concentration by Day 14, day 9 in culture", "value": 97.4, "unit": "%"}]}
